Patent US12173018B2, “Penicillin-binding protein inhibitors” (priority 2018, dated 2024)
In brackets after ≈: the same amount, converted by molar mass. Where a name gives a salt, the structure may show the parent alone. Read-outs that look alike come from different tables or passages of the source.

Tests used:
E. coli PBP3 = E. coli PBP3 (Escherichia coli (strain K12), UniProt P0AD68); test: E. coli PBP3 Bocillin-FL fluorescence polarization competition binding assay
How it was run: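 FP competition: 1.5 μM PBP, 0.1 μM Bocillin-FL, cpd 0–1000 μM; 50 mM Hepes pH 8.0/300 mM NaCl/5% glycerol. Read 490/520 nm immediately after Bocillin-FL addition, 60 min. EC50 = cpd conc. lowering probe binding.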

E. coli PBP1b = E. coli PBP1b (Escherichia coli (strain K12), UniProt P02919); test: Radioligand competition binding assay with 14C-labeled boronic acid probe, PBP1b
Source text: To determine the ability of boronic acid-based test PBP inhibitors to bind Penicillin Binding Proteins (PBPs), a radio-labelled boronic acid PBP inhibitor
[drawing 751] was used in competition binding assays to determine boronic acid PBP inhibitor binding to PBP1a or PBP1b from Escherichia coli. PBP1a and PBP1b were purified as described previously (Bertsche, U.; et al., J. Biol. Chem. 2005, 280 (45), 38096-38101; Born, P.; et al., J. Biol. Chem. 2006. 281 (37), 26985-26993). To establish assay conditions for competition binding, an enzyme titration/saturation binding experiment was performed. Saturation binding was performed in a buffer comprised of 20 mM Tris (pH 7.5), 500 mM NaCl and 0.1% (v/v) TritonX-100, with PBP1a/PBP1b at a final concentration of 0.1 μM and Compound A at final concentrations ranging from 0-100 μM. Mixtures were incubated for 60 minutes, then applied to Zeba Spin Desalting columns or plates (ThermoFisher Scientific) and centrifuged at 1000-1500×g for 2 minutes. The flow through, containing PBP bound with Compound A, was recovered and 100 μL mixed with 5 mL of UltimaGold liquid scintillation cocktail (Perkin Elmer), and the radioactivity counted using a Beckman Coulter LS 6500 Multipurpose scintillation counter. PBP binding of Compound A approached saturation at 20 μM of ^14C-labeled probe. The competition binding assay was validated using the beta-lactam ampicillin, with Compound A at a final concentration of 20 μM, PBP1a/PBP1b at a final concentration of 0.1 μM. PBP1a/PBP1b was incubated with ampicillin in a 96-well microplate for 60 minutes, then Compound A was added and the mixtures incubated for an additional 60 minutes. The mixtures were then applied to Zeba Spin desalting plates and centrifuged at 1000×g for 2 minutes. The flow through was recovered and 100 μl mixed with 5 ml of UltimaGold liquid scintillation cocktail and the radioactivity counted. […] Binding assays with boronic acid PBP inhibitors were performed in an identical fashion. The potency of boronic acid PBP inhibitors was reported as the EC50 value.

[1] = test system: engineered strain of Escherichia coli harboring CTX-M15; test: microbe, parasite or virus in culture; type: cell-based; conditions: Escherichia coli, read-out: Microbiological Activity (MIC in mg/L), E. coli DH5α/pLBII-CTX-M15, engineered strain producing CTX-M15
[2] = fluorescence polarization competition binding with Bocillin-FL, read-out: E. coli K12 PBP3 Potency

Chain of E. coli PBP1b (P02919 whole entry): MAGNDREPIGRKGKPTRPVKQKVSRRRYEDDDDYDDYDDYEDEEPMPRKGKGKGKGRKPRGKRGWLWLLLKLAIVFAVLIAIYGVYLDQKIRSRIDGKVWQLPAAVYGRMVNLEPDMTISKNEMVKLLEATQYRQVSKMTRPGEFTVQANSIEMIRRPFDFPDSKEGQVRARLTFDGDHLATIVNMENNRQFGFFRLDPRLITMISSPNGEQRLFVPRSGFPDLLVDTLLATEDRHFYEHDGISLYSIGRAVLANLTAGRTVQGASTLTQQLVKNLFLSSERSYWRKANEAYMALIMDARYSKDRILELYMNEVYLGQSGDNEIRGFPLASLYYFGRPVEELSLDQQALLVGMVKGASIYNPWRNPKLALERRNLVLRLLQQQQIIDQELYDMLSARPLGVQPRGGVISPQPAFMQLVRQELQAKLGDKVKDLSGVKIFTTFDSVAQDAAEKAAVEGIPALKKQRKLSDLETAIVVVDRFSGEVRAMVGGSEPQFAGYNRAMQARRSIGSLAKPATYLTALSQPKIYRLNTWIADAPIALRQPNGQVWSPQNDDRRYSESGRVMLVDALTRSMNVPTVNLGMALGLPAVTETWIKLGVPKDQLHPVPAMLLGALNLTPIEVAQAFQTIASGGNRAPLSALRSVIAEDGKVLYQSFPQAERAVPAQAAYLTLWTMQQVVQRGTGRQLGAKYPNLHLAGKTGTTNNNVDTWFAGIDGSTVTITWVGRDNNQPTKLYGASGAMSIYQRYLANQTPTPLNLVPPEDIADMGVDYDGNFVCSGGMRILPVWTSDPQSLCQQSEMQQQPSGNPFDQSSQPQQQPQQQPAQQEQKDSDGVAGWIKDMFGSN
Chain of E. coli PBP3 (P0AD68 whole entry): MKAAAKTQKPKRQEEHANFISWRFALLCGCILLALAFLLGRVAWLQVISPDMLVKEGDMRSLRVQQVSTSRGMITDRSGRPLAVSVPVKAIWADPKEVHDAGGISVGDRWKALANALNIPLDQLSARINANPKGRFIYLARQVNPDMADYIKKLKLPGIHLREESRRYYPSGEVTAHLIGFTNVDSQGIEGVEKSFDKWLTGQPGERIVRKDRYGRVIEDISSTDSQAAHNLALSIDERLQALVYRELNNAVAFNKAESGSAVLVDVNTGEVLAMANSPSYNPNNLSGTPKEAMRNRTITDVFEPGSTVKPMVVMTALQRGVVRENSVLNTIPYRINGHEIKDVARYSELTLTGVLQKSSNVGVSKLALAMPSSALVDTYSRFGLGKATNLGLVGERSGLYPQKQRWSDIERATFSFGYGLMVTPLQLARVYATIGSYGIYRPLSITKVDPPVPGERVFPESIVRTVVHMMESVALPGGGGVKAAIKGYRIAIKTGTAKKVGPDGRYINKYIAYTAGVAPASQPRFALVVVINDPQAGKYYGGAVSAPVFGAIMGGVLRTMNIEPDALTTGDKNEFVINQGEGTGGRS

## CCN1CCN(C(=O)NC(C(=O)N[C@H]2Cc3cccc(C(=O)O)c3OB2O)c2cnn(C)c2)C(=O)C1=O (stereo partly drawn) [Example 60, (3R)-3-(2-(4-ethyl-2,3-dioxopiperazine-1-carboxamido)-2-(1-methyl-1H-pyrazol-4-yl)acetamido)-2-hydroxy-3,4-dihydro-2H-benzo[e][1,2]oxaborinine-8-carboxylic acid]
E. coli PBP3
  EC50: 30 to 500 µM
E. coli PBP1b
  EC50: 10 to 100 µM
[1]
  MIC: 32 to 64 mg/L (≈ 62.5 to 125 µM)

## CCN1CCN(C(=O)N[C@H](C(=O)N[C@H]2Cc3cccc(C(=O)O)c3OB2O)C2(CO)CC2)C(=O)C1=O [Example 63, (R)-3-((S)-2-(4-ethyl-2,3-dioxopiperazine-1-carboxamido)-2-(1-(hydroxymethyl)cyclopropyl)acetamido)-2-hydroxy-3,4-dihydro-2H-benzo[e][1,2]oxaborinine-8-carboxylic acid]
E. coli PBP3; [2]
  EC50: > 500 µM
E. coli PBP1b
  EC50: < 10 µM
[1]
  MIC: 128 to 256 mg/L (≈ 255 to 510 µM)

## CCN1CCN(C(=O)NC(C(=O)N[C@H]2Cc3cccc(C(=O)O)c3OB2O)c2ccc(CCN)cc2)C(=O)C1=O (stereo partly drawn) [Example 64, (3R)-3-(2-(4-(2-aminoethyl)phenyl)-2-(4-ethyl-2,3-dioxopiperazine-1-carboxamido)acetamido)-2-hydroxy-3,4-dihydro-2H-benzo[e][1,2]oxaborinine-8-carboxylic acid]
E. coli PBP3; [2]
  EC50: > 500 µM
E. coli PBP1b
  EC50: 10 to 100 µM
[1]
  MIC: 128 to 256 mg/L (≈ 232 to 464 µM)

## CCN1CCN(C(=O)NC(C(=O)N[C@H]2Cc3cccc(C(=O)O)c3OB2O)c2ccc(O)nc2Cl)C(=O)C1=O (stereo partly drawn) [Example 67, (3R)-3-(2-(2-chloro-6-hydroxypyridin-3-yl)-2-(4-ethyl-2,3-dioxopiperazine-1-carboxamido)acetamido)-2-hydroxy-3,4-dihydro-2H-benzo[e][1,2]oxaborinine-8-carboxylic acid]
E. coli PBP3
  EC50: 30 to 500 µM
E. coli PBP1b
  EC50: 10 to 100 µM
[1]
  MIC: 128 to 256 mg/L (≈ 229 to 457 µM)

## CCN1CCN(C(=O)NC(CNS(N)(=O)=O)C(=O)N[C@H]2Cc3cccc(C(=O)O)c3OB2O)C(=O)C1=O (stereo partly drawn) [Example 68, (3R)-3-(2-(4-ethyl-2,3-dioxopiperazine-1-carboxamido)-3-(sulfamoylamino)propanamido)-2-hydroxy-3,4-dihydro-2H-benzo[e][1,2]oxaborinine-8-carboxylic acid]
E. coli PBP3; [2]
  EC50: > 500 µM
E. coli PBP1b
  EC50: < 10 µM
[1]
  MIC: 32 to 64 mg/L (≈ 59.2 to 118 µM)

## CCN1CCN(C(=O)NC(CNC(C)=O)C(=O)N[C@H]2Cc3cccc(C(=O)O)c3OB2O)C(=O)C1=O (stereo partly drawn) [Example 69, (3R)-3-(3-acetamido-2-(4-ethyl-2,3-dioxopiperazine-1-carboxamido)propanamido)-2-hydroxy-3,4-dihydro-2H-benzo[e][1,2]oxaborinine-8-carboxylic acid]
E. coli PBP3; [2]
  EC50: > 500 µM
E. coli PBP1b
  EC50: < 10 µM
[1]
  MIC: 128 to 256 mg/L (≈ 254 to 509 µM)

## CCN1CCN(C(=O)NC(C(=O)N[C@H]2Cc3cccc(C(=O)O)c3OB2O)C2CCN(CC(=O)O)CC2)C(=O)C1=O (stereo partly drawn) [Example 72, (3R)-3-(2-(1-(carboxymethyl)piperidin-4-yl)-2-(4-ethyl-2,3-dioxopiperazine-1-carboxamido)acetamido)-2-hydroxy-3,4-dihydro-2H-benzo[e][1,2]oxaborinine-8-carboxylic acid, trifluoroacetic acid salt]
E. coli PBP3
  EC50: 30 to 500 µM
E. coli PBP1b
  EC50: < 10 µM
[1]
  MIC: 128 to 256 mg/L

## CCN1CCN(C(=O)N[C@H](CNCC(=O)O)C(=O)N[C@H]2Cc3cccc(C(=O)O)c3OB2O)C(=O)C1=O [Example 73, (R)-3-((R)-3-((carboxymethyl)amino)-2-(4-ethyl-2,3-dioxopiperazine-1-carbox-amido)propanamido)-2-hydroxy-3,4-dihydro-2H-benzo[e][1,2]oxaborinine-8-carboxylic acid, trifluoroacetic acid salt]
E. coli PBP3; [2]
  EC50: > 500 µM
E. coli PBP1b
  EC50: > 100 µM
[1]
  MIC: 128 to 256 mg/L

## CCN1CCN(C(=O)NC(C(=O)N[C@H]2Cc3cccc(C(=O)O)c3OB2O)c2ccc(OCCO)cc2)C(=O)C1=O (stereo partly drawn) [Example 74, (3R)-3-(2-(4-ethyl-2,3-dioxopiperazine-1-carboxamido)-2-(4-(2-hydroxyethoxy)phenyl)acetamido)-2-hydroxy-3,4-dihydro-2H-benzo[e][1,2]oxaborinine-8-carboxylic acid]
E. coli PBP3
  EC50: 30 to 500 µM
E. coli PBP1b
  EC50: > 100 µM
[1]
  MIC: 128 to 256 mg/L (≈ 225 to 450 µM)

## CCN1CCN(C(=O)NC(C(=O)N[C@H]2Cc3cccc(C(=O)O)c3OB2O)C2CCN(S(N)(=O)=O)CC2)C(=O)C1=O (stereo partly drawn) [Example 77, (3R)-3-(2-(4-ethyl-2,3-dioxopiperazine-1-carboxamido)-2-(1-sulfamoylpiperidin-4-yl)acetamido)-2-hydroxy-3,4-dihydro-2H-benzo[e][1,2]oxaborinine-8-carboxylic acid]
E. coli PBP3
  EC50: 30 to 500 µM
E. coli PBP1b
  EC50: < 10 µM
[1]
  MIC: 128 to 256 mg/L (≈ 215 to 431 µM)

## CCN1CCN(C(=O)NC(C(=O)N[C@H]2Cc3cccc(C(=O)O)c3OB2O)C2CN(S(N)(=O)=O)C2)C(=O)C1=O (stereo partly drawn) [Example 78, (3R)-3-(2-(4-ethyl-2,3-dioxopiperazine-1-carboxamido)-2-(1-sulfamoylazetidin-3-yl)acetamido)-2-hydroxy-3,4-dihydro-2H-benzo[e][1,2]oxaborinine-8-carboxylic acid]
E. coli PBP1b
  EC50: > 100 µM
[1]
  MIC: 128 to 256 mg/L (≈ 226 to 452 µM)

## CCN1CCN(C(=O)N[C@@H](CNS(C)(=O)=O)C(=O)N[C@H]2Cc3cccc(C(=O)O)c3OB2O)C(=O)C1=O [Example 84, (R)-3-((S)-2-(4-ethyl-2,3-dioxopiperazine-1-carboxamido)-3-(methylsulfonamido)propanamido)-2-hydroxy-3,4-dihydro-2H-benzo[e][1,2]oxaborinine-8-carboxylic acid]
E. coli PBP3
  EC50: 30 to 500 µM
E. coli PBP1b
  EC50: < 10 µM
[1]
  MIC: 128 to 256 mg/L (≈ 237 to 475 µM)

## CCN1CCN(C(=O)NC(C(=O)N[C@H]2Cc3cccc(C(=O)O)c3OB2O)c2ccc(O)cc2Cl)C(=O)C1=O (stereo partly drawn) [Example 88, (3R)-3-(2-(2-chloro-4-hydroxyphenyl)-2-(4-ethyl-2,3-dioxopiperazine-1-carboxamido)acetamido)-2-hydroxy-3,4-dihydro-2H-benzo[e][1,2]oxaborinine-8-carboxylic acid]
E. coli PBP3; [2]
  EC50: < 30 µM
E. coli PBP1b
  EC50: < 10 µM
[1]
  MIC: 128 to 256 mg/L (≈ 229 to 458 µM)

## CCN1CCN(C(=O)N[C@@H](C(=O)N[C@H]2Cc3cccc(C(=O)O)c3OB2O)C2CCN(C(=N)N)CC2)C(=O)C1=O [Example 91, (R)-3-((R)-2-(1-carbamimidoylpiperidin-4-yl)-2-(4-ethyl-2,3-dioxopiperazine-1-carboxamido)acetamido)-2-hydroxy-3,4-dihydro-2H-benzo[e][1,2]oxaborinine-8-carboxylic acid]
E. coli PBP3
  EC50: > 500 µM
E. coli PBP1b
  EC50: < 10 µM
[1]
  MIC: 128 to 256 mg/L (≈ 230 to 459 µM)

## CCN1CCN(C(=O)N[C@H](C(=O)N[C@H]2Cc3cccc(C(=O)O)c3OB2O)C2CCN(C(=N)N)CC2)C(=O)C1=O [Example 92, (R)-3-((S)-2-(1-carbamimidoylpiperidin-4-yl)-2-(4-ethyl-2,3-dioxopiperazine-1-carboxamido)acetamido)-2-hydroxy-3,4-dihydro-2H-benzo[e][1,2]oxaborinine-8-carboxylic acid]
E. coli PBP3
  EC50: > 500 µM
E. coli PBP1b
  EC50: < 10 µM
[1]
  MIC: 128 to 256 mg/L (≈ 230 to 459 µM)

## CCN1CCN(C(=O)NC(C(=O)N[C@H]2Cc3cccc(C(=O)[O-])c3OB2O)c2ccc[n+](C)c2)C(=O)C1=O (stereo partly drawn) [Example 106, (3R)-3-(2-(4-ethyl-2,3-dioxopiperazine-1-carboxamido)-2-(1-methylpyridin-1-ium-3-yl)acetamido)-2-hydroxy-3,4-dihydro-2H-benzo[e][1,2]oxaborinine-8-carboxylate]
E. coli PBP3; [2]
  EC50: > 500 µM
E. coli PBP1b
  EC50: < 10 µM
[1]
  MIC: 32 to 64 mg/L (≈ 61.1 to 122 µM)

## CCN1CCN(C(=O)NC(C(=O)N[C@H]2Cc3cccc(C(=O)O)c3OB2O)C2CCCC2)C(=O)C1=O (stereo partly drawn) [Example 116, (3R)-3-(2-cyclopentyl-2-(4-ethyl-2,3-dioxopiperazine-1-carboxamido)acetamido)-2-hydroxy-3,4-dihydro-2H-benzo[e][1,2]oxaborinine-8-carboxylic acid]
E. coli PBP3; [2]
  EC50: < 30 µM
E. coli PBP1b
  EC50: 10 to 100 µM
[1]
  MIC: 128 to 256 mg/L (≈ 256 to 512 µM)

## CCN1CCN(C(=O)NC(C(=O)N[C@H]2Cc3cccc(C(=O)O)c3OB2O)c2ccc(N)cn2)C(=O)C1=O (stereo partly drawn) [Example 132, (3R)-3-(2-(5-aminopyridin-2-yl)-2-(4-ethyl-2,3-dioxopiperazine-1-carboxamido)acetamido)-2-hydroxy-3,4-dihydro-2H-benzo[e][1,2]oxaborinine-8-carboxylic acid]
E. coli PBP3; [2]
  EC50: < 30 µM
E. coli PBP1b
  EC50: 10 to 100 µM
